≈ marks a conversion by molar mass, not a printed value.
These compounds were tested on Radical scavenging activity (assay: Antioxidant activity assessed as DPPH radical scavenging activity).
Type: functional

With COC(=O)c1cc(=O)[nH]c2ccc(O)cc12 as the compound, how does the IC50 read?
Its IC50 is 36.4 µg/mL (≈ 166 µM).

For O=C1O[C@H]([C@@H](O)CO)C(O)=C1O [ASCORBIC ACID], which IC50 is on record?
Its IC50 is 21.8 µg/mL (≈ 124 µM).

How did the IC50 turn out when COc1ccc(O)c(C(C)(C)C)c1.COc1ccc(O)cc1C(C)(C)C [BUTYLATED HYDROXYANISOLE] was run?
The IC50 was 20.6 µg/mL.
